Measured values: US4801607A, “Antiviral furanoditerpenoids” (Harbor Branch Oceanographic Institution, Inc., priority 1987, dated 1989)
≈ marks a conversion by molar mass, not a printed value. Like-named read-outs stand apart in the source and are kept apart here. Marks after values point to notes of the source that are not given here.

Key:
[1] = system: P388 mouse leukemia cells; experiment: P388 mouse leukemia cell assay; format: cell-based; conditions: 48 hours
Procedure: P388 mouse leukemia cells are grown in Dulbecco's minimum essential medium with Earle's salts (MEM) with 10% horse serum, 4 mM glutamine, and 20 ug/ml gentamicin (Biologos, Inc.). Cells are incubated in 10% CO2 and subcultured 2 times per week. 1. Add compound to each well of a 24-well plate or tube and allow solvent to evaporate to dryness. 2. Add 2 ml (1.2×10^5) cells to each well or tube and mix. 3. Incubate in 10% CO2 at 37° for 48 hours. 4. Read plates with an inverted microscope, scoring activity from 1+ to 4+ as follows: ND (not detectable),>90%; 1+, 75-90%; 2+, 50-74%; 3+, 25-49%; 4+, <25% of control growth. Cell counts are performed on each tube and results are reported as percent of control. Positive control--Vinblastine or Vincristine in aqueous solution.

[2] = system: HCT-8 human colon tumor cells; experiment: Human tumor cell line assay, HCT-8 colon; format: cell-based; conditions: 120 hours, read-out: Antitumor activity, HCT-8
Procedure: (§1) HCT-8 human colon tumor cells are grown in RPM1 1640 medium (GIBCO). A-549 human lung carcinoma cells are cultured in Dulbecco medium (Biologos, Inc.). MCF-7, MDA-MB 231 and T47D human breast carcinoma cells are grown in Eagles MEM medium. All media are supplemented with 10% fetal bovine serum and contain 50 μg/ml gentamicin. All human tumor cell lines are incubated in 5% CO2 at 37° and subcultured once a week. The seeding levels are 350,000 MCF-7 cells, 60,000 HCT-8 cells and 300,000 A-549 cells per T25 flask.
(§2) 2. Incubate in 5% CO2 for 48 hours.
(§3) 3. Add compound (50 μg)to each well and incubate for an additional 120 hours.
(§4) 4. Discard medium and stain with methylene blue (HCT-8) or crystal violet (A549 and MCF-7) for 30 minutes.
(§5) 5. Compare cell density of drug-treated well with that of the control (no drug added) as follows: ND (not detectable), >90%; 1+, 75-90%; 2+, 50-74%; 3+, 25-49%, 4+, <25% of control growth.

HSV-1 = experiment: Antiviral disc assay, HSV-1 in CV-1 cells; format: cell-based, herpes simplex type 1
CV-1 cells = experiment: Cytotoxicity in the antiviral disc assay
[3] = system: A-549 human lung carcinoma cells; experiment: Human tumor cell line assay, A-549 lung; format: cell-based; conditions: 120 hours, read-out: Antitumor activity, A-549
Procedure: as §1, §2, §3, §4, §5

VSV = format: cell-based, vesicular stomatitis virus
[4] = system: MDA-MB 231 human breast carcinoma cells; experiment: Human tumor cell line assay, MDAMB mammary; format: cell-based; conditions: 120 hours, read-out: Antitumor activity, MDAMB
Procedure: as §1, §2, §3, §4, §5

human tumor cell lines = experiment: Human tumor cell line assay (cell lines together); format: cell-based; conditions: 120 h, in concentrations of at least 10 μg/ml, read-out: concentrations with good activity against human tumor cell lines
Procedure: as §1, §2, §3, §4, §5

Compound `C[C@]12C[C@@H](O)C(=O)[C@](C)(CO)[C@@H]1CC[C@@]1(C)c3cocc3CC[C@H]21` [Composition 1, isospongiadiol] has an IC50 [1] of 5 µg/mL (≈ 15 µM), an activity at 1 µg/mL ([2]; dose 1 μg/ml) of over 90% and an activity at 10 µg/mL ([2]; dose 10 μg/ml) of 25 to 49%. For the same compound, the activity at 50 µg/mL ([2]; dose 50 μg/ml) was under 25%, the “HSV-1 Activity” value (HSV-1; 2 μg/disk) was “++” and the “HSV-1 Activity” value (HSV-1; 20 μg/disk) was “+++”. For the same compound, the Cytotoxicity (CV-1 cells; 2 μg/disk) was 0*, the Cytotoxicity (CV-1 cells; 20 μg/disk) was 0* and the activity at 1 µg/mL ([3]; A549, dose 1 μg/ml) was over 90%. The activity at 10 µg/mL ([3]; A549, dose 10 μg/ml) was 25 to 49%, the activity at 50 µg/mL ([3]; A549, dose 50 μg/ml) was under 25% and the “VSV Activity” value (VSV; 20 μg/disk) was “+”. It also gave an activity at 1 µg/mL ([4]; dose 1 μg/ml) of over 90%, an activity at 10 µg/mL ([4]; dose 10 μg/ml) of 25 to 49% and an activity at 50 µg/mL ([4]; dose 50 μg/ml) of under 25%. The minimal effective concentration (human tumor cell lines) was at least 10 µg/mL.

`C[C@]12CC(=O)[C@@H](O)[C@](C)(CO)[C@@H]1CC[C@@]1(C)c3cocc3CC[C@H]21` [Composition 2, spongiadiol] was tested, and the IC50 [1] was 0.5 µg/mL (≈ 1.5 µM), the “HSV-1 Activity” value (HSV-1; 0.5 μg/disk) was “+++” and the “VSV Activity” value (VSV; 0.5 μg/disk) was “++”. For the same compound, the “VSV Activity” value (VSV; 1 μg/disk) was “+++”.

For `C[C@]12CC(=O)[C@H](O)[C@](C)(CO)[C@@H]1CC[C@@]1(C)c3cocc3CC[C@H]21` [Composition 3, epispongiadiol], the IC50 [1] was 8 µg/mL (≈ 24.1 µM), the “HSV-1 Activity” value (HSV-1; 6.25 μg/disk) was “+” and the “HSV-1 Activity” value (HSV-1; 12.5 μg/disk) was “++”. The “VSV Activity” value (VSV; 20 μg/disk) was “+”.
